Entries after “also recorded” stand apart in the source; their conditions may differ.
How the values were obtained:
[1] = test system: HIV; assay: NCI in vitro anti-HIV screen (XTT soluble-formazan assay, protection of HIV-infected CEM cells); assay type: cell-based; details: for anti-HIV effect (statement): NCI anti-HIV screen, in vitro, CEM cells
Description: The National Cancer Institute's procedure for testing for agents active against Human Immunodeficiency Virus (HIV) (Weislow, O. W. et al, "New soluble-formazan assay for HIV-1 cytopathic effects: application to high-flux screening of synthetic and natural products for AIDS-antiviral activity," J. Natl. Cancer Inst., 81, 577-586, 1989) is designed to detect agents acting at any stage of the virus reproductive cycle. The assay includes the killing of T4 lymphocytes by HIV. Pursuant to the test, small amounts of HIV are added to cells, and a complete cycle of virus reproduction is necessary to obtain the required cell killing. Agents that interact with virions, cells, or virus gene-products to interfere with viral activities will protect cells from cytolysis. The system is thus designed to detect anti-HIV activity. However, compounds that degenerate or are rapidly metabolized in the culture conditions may not show activity in this screen. All tests are compared with at least one positive (e.g., AZT-treated) control done at the same time under identical conditions.
(§1) 1. The candidate agent is dissolved in dimethyl sulfoxide (unless otherwise instructed), then diluted 1:200 in cell culture medium. Further dilutions (half-log10) are prepared before adding to 96-well microtiter plates.
(§2) 2. T4 lymphocytes (CEM cell line) are exposed to HIV at a virus-to-cell ratio of approximately 0.05 and are plated along with non-infected control cells into drug-containing wells or wells with medium alone.
(§3) 3. Cultures are incubated at 37° in a 5% carbon dioxide atmosphere for 6 days.
(§4) 4. The tetrazolium salt, XTT, is added to all wells, and cultures are incubated to allow formazan color development by viable cells.
(§5) 5. […] are analyzed spectrophotometrically to quantitate formazan production and, in addition, are viewed microscopically for detection of viable cells and confirmation of protective activity.
(§6) 6. Drug-treated virus-infected cells are compared with drug-treated non-infected cells and with other appropriate controls (untreated infected and untreated non-infected cells, drug-containing wells without cells, etc.) on the same plate.
(§7) 7. Data are reviewed in comparison with other tests performed at the same time, and a determination about activity is made.
Approximate values for 50% effective concentration (EC50) (protection in infected cells), 50% inhibitory concentration (IC50) and the therapeutic index (IC50 /EC50) have been calculated for each test and are provided in the tables of each Example.
Examples 1, 6 and 8 compounds, respectively, against the measured test values expressed as a percentage of the uninfected, untreated control values. The solid line depicts the percentage of surviving HIV-infected cells treated with sample (at the indicated concentration) relative to uninfected, untreated controls. The solid line expresses the in vitro anti-HIV activity of the compound of the tested compound. The dashed line depicts the percentage of surviving uninfected cells treated with the compound of the Example relative to the same uninfected, untreated controls. The dashed line expresses the in vitro growth inhibitory properties of the compound of the Example. The viral cytopathic effect of a compound of each Example is indicated by a combination of dashes and dots. […] Survival values of this parameter less then 50% are considered acceptable in the current protocol.

[2] = test system: T4 lymphocytes (CEM cell line); assay: NCI in vitro anti-HIV screen, growth inhibition of uninfected CEM cells (XTT); assay type: cell-based; details: Homo sapiens, CCRF-CEM, 144 h, read-out: IC50 (50% inhibitory concentration)
Experimental: The assay includes the killing of T4 lymphocytes by HIV. Pursuant to the test, small amounts of HIV are added to cells, and a complete cycle of virus reproduction is necessary to obtain the required cell killing. Agents that interact with virions, cells, or virus gene-products to interfere with viral activities will protect cells from cytolysis. The system is thus designed to detect anti-HIV activity. However, compounds that degenerate or are rapidly metabolized in the culture conditions may not show activity in this screen. All tests are compared with at least one positive (e.g., AZT-treated) control done at the same time under identical conditions.
as §1, §2, §3, §4, §5, §6, §7
Survival values of this parameter less then 50% are considered acceptable in the current protocol.

[3] = test system: HIV; assay: in vitro testing for infectious particles; assay type: cell-based
[4] = test system: reverse transcriptase; assay: reverse transcriptase assay of cell-free supernatant; assay type: cell-based, HIV; details: in vitro
Experimental: (§8) Activity was also examined by determination of p24 and reverse transcriptase concentrations.
Reverse transcriptase assays were performed according to the method of Hoffman et al, Virology, 147, 326-335 (1985), with minor modifications. Briefly, 15 µl of cell-free supernatant was mixed with 10 μl of RT reaction buffer. The total 25 μl reaction mixture consisted of 2.5 μCi of tritated thymidine triphosphate (TTP) (ICN, 80 Ci/mmol), poly rA (50 ng/ml):oligo dT (10 ng/ml) template:primer (Pharmacia), 10 mM Tris, pH 7.6, 8 mM magnesium chloride, 10 mM dithiothreitol (DTT), and, in the standard reaction, 0.5% Triton X-100. Assays were performed in the absence of added EGTA unless indicated. When EGTA (Sigma) was added it was at a concentration of 1 mM. The reactions were incubated for 60 minutes at 37° C. The reaction volume was then spotted onto DE81 chromatography paper (Whatman), washed extensively in 5% dibasic sodium phosphate, and counted for incorporated radioactivity in a toluene-based scintillation cocktail. Assays were also performed to measure the presence of a nuclease activity associated with HIV virions. […] The HIV virion sample was added to the AMV RT reaction product and the amount of radioactivity able to bind to DE81 paper was monitored after varying times of incubation at 37° C. […]

[5] = test system: HIV-1 p24; assay: p24 antigen-capture assay; assay type: cell-based; details: in vitro
Experimental: as §8
To determine p24, a p24 antigen-capture assay was used. Culture fluids harvested from drug test plates or other sources were diluted 1:100 in 10% triton X-100 and stored frozen at -70° C. 200 μL aliquots of the triton treated samples were added in duplicate to microtiter wells previously coated with rabbit polyclonal anti-HIV-1 p24 serum and incubated at room temperature overnight. After washing and blotting, 100 μL of biotinylated polyclonal anti-HIV p-24 was added to each of the appropriate wells, and the plates were re-incubated at 37° C. for 60 minutes. A solution of streptavidin-horseradish peroxidase was added after additional washing and blotting. The contents of each plate were mixed and reincubated for 15 minutes at room temperature and, after washing and blotting, the o-phenylenediamine dihydrochloride substrate was added in 100 μL aliquots. Color was allowed to develop in the dark room at room temperature for 30 minutes, and the reaction was halted by the addition of 4 N H2 SO4. Optical density was measured at 490 nm, and the concentration of p24 was determined by comparison with a standard curve of known concentrations of p24. Eislow, O., et al., J. Nat'l Cancer Inst., 81 (8):577-86 (1989).

CC(C)CCC[C@@H](C)[C@H]1CC[C@H]2[C@@H]3CC[C@H]4C[C@@H](CCC=C(c5cc(Cl)c(O)c(C(=O)O)c5)c5cc(Cl)c(O)c(C(=O)O)c5)CC[C@]4(C)[C@H]3CC[C@]12C [Formula IV, 1,1-di(3'-ammoniumcarboxy-5'-chloro-4'-hydroxy)phenyl-4-(3β)-cholestanyl-1-butene]
anti-HIV effect (statement) [1]: greatest effect on inhibiting HIV-infected cells, while having a lesser effect on uninfected cells | anti-HIV effect (statement) ([1]; listed as Cosalane): highly effective anti-HIV agent in vitro; also recorded: most effective compounds studied in terms of prevention of the cytopathic effect of HIV in CEM lymphocytes | EC50 ([1]; read-out: EC50 (50% effective concentration, protection in infected cells), HIV-infected CEM cells, 6 days, XTT, approximate values, one value per run): 6.7 µM | IC50 [2]: > 310 µM | infectious particles (FIG. 2) [3]: indicating anti-HIV activity | reverse transcriptase activity (FIG. 4) [4]: indicating anti-HIV activity | p24 (FIG. 3) [5]: indicating anti-HIV activity

From US5439899A, “Cosalane and related compounds having activity against aids and aids-related infections” (priority 1993, dated 1995)
